Common to all, as to test: in vitro antibacterial activity, minimal inhibitory concentration
What all share (assay type): cell-based

One experiment relates to Staph. aureus S18733. Particulars: Staphylococcus aureus. From the text:
(§1) The compounds of the invention are new chemical compounds that are used as pharmacological agents and especially as broad spectrum antibacterial agents. They are active in vitro against strains of both gram-positive and gram-negative bacteria.
(§2) Minimal Inhibitory Concentration (μg/ml)

The test system of another experiment is Prot. vulg.
From the text: as §1, §2

For a further experiment, the system named is Pseudomonas #28. Particulars: read-out: Minimal Inhibitory Concentration.
From the text: as §1, §2

The test system of a further experiment is Serr. marces.
From the text: as §1, §2

In a further experiment the test system is Strep. fec.
From the text: as §1, §2

The next experiment concerns E. coli Brig. Particulars: Escherichia coli.
From the text: as §1, §2

In the next experiment the test system is E. coli Vogel. The conditions noted are these: Escherichia coli.
From the text: as §1, §2

The test system of another experiment is Pseudomonas BRK 12-4-4. Particulars: BRK1244; Pseudomonas BRK 12-4-4, in vitro.
From the text: as §1, §2

The test system of a further experiment is Staph. aureus UC-76. Particulars: Staphylococcus aureus, UC76; Staph. aureus UC-76, in vitro.
From the text: as §1, §2

The subject of a further experiment is Pseudomonas UI 18. The conditions noted are these: UI18; Pseudomonas UI 18, in vitro.
From the text: as §1, §2

In another experiment the test system is Klebs. pneu.
From the text: as §1, §2

The test system of a further experiment is Entero. cloacae. Particulars: Enterobacter cloacae.
From the text: as §1, §2

Our source for the MIC values is patent US4311699A, “Aminoacid derivatives of cephalosporin compounds” (priority 1980, dated 1982).

≈ marks a conversion by molar mass, not a printed value. Read-outs that look alike come from different tables or passages of the source.

With `CC(=O)NC(CCC(N)=O)C(=O)Nc1ccc(-c2ncc(C(=O)N[C@@H](C(=O)N[C@@H]3C(=O)N4C(C(=O)O)=C(COC(C)=O)CS[C@H]34)c3ccccc3)c(O)n2)cc1` (mixture of isomers) [Example 14, N-[2-[4-(N-Acetyl-DL-glutaminylamino)phenyl]-4-hydroxy-5-pyrimidinylcarbonyl]-7-[D-2-amino-2phenylacetamido]-3-acetoxymethyl-3-cephem-4-carboxylic acid], the MIC is 6.3 µg/mL against Staph. aureus S18733; 25 µg/mL in the experiment on Prot. vulg.; 6.3 µg/mL with Pseudomonas #28 (Pseudomonas #28, in vitro); > 50 µg/mL against Serr. marces.; 50 µg/mL in the experiment with Strep. fec.; 25 µg/mL against E. coli Brig. Also, the MIC is 6.3 µg/mL against E. coli Vogel; 12.5 µg/mL in the experiment with Pseudomonas BRK 12-4-4; 1.6 µg/mL against Staph. aureus UC-76; 12.5 µg/mL against Pseudomonas UI 18; 12.5 µg/mL in the experiment on Klebs. pneu.; 50 µg/mL against Entero. cloacae.

With `CC(=O)NCCCCC(NC(C)=O)C(=O)Nc1ccc(-c2ncc(C(=O)N[C@@H](C(=O)N[C@@H]3C(=O)N4C(C(=O)O)=C(COC(C)=O)CS[C@H]34)c3ccccc3)c(O)n2)cc1` (mixture of isomers) [Example 12, N-[2-[4-(N^α,N^ω -Diacetyl-DL-lysylamino)phenyl]-4-hydroxy-5-pyrimidinylcarbonyl]-7-[D-2-amino-2-phenylacetamido]-3-acetoxymethyl-3-cephem-4carboxylic acid], the MIC in the experiment with Staph. aureus S18733 is 6.3 µg/mL; against Prot. vulg., 50 µg/mL; in the experiment on Pseudomonas #28 (Pseudomonas #28, in vitro), 6.3 µg/mL; in the experiment on Serr. marces., > 50 µg/mL; against Strep. fec., 50 µg/mL; in the experiment on E. coli Brig, 50 µg/mL. The MIC was found to be 6.3 µg/mL in the experiment with E. coli Vogel; 12.5 µg/mL with Pseudomonas BRK 12-4-4; 1.6 µg/mL in the experiment with Staph. aureus UC-76; 6.3 µg/mL in the experiment on Pseudomonas UI 18; 25 µg/mL in the experiment with Klebs. pneu.; 25 µg/mL against Entero. cloacae.

With `CC(=O)N[C@H](C)C(=O)Nc1ccc(-c2ncc(C(=O)N[C@@H](C(=O)NC3C(=O)N4C(C(=O)O)=C(CSc5nnnn5C)CSC34)c3ccccc3)c(O)n2)cc1` (stereo partly drawn) [Example 25, N-[2-[4-(N-Acetyl-D-alanylamino)phenyl]-4-hydroxy-5-pyrimidinylcarbonyl]-7-[D-2-amino-2-phenylacetamido]-3-[[(1-methyl-1H-tetrazol-5-yl)thio]methyl]-3-cephem-4-carboxylic acid], the MIC was 6.3 µg/mL (≈ 8 µM) against Staph. aureus S18733; 12.5 µg/mL (≈ 15.9 µM) in the experiment on Prot. vulg.; 3.1 µg/mL (≈ 3.93 µM) with Pseudomonas #28 (Pseudomonas #28, in vitro); 50 µg/mL (≈ 63.5 µM) in the experiment with Serr. marces.; > 50 µg/mL in the experiment with Strep. fec.; 6.3 µg/mL (≈ 8 µM) in the experiment with E. coli Brig. Moreover, the MIC stood at 3.1 µg/mL (≈ 3.93 µM) with E. coli Vogel; 6.3 µg/mL (≈ 8 µM) against Pseudomonas BRK 12-4-4; 1.6 µg/mL (≈ 2.03 µM) against Staph. aureus UC-76; 6.3 µg/mL (≈ 8 µM) in the experiment on Pseudomonas UI 18; 3.1 µg/mL (≈ 3.93 µM) in the experiment with Klebs. pneu.; 6.3 µg/mL (≈ 8 µM) with Entero. cloacae.

Consider `CC(=O)NC(CCC(N)=O)C(=O)Nc1ccc(-c2ncc(C(=O)N[C@@H](C(=O)NC3C(=O)N4C(C(=O)O)=C(CSc5nnnn5C)CSC34)c3ccccc3)c(O)n2)cc1` (mixture of isomers) [Example 23, N-[2-[4-(N-Acetyl-DL-glutaminylamino)phenyl]-4-hydroxy-5-pyrimidinylcarbonyl]-7-[D-2-amino-2-phenylacetamido]-3-[[1-methyl-1H-tetrazol-5-yl)thio]methyl]-3-cephem-4-carboxylic acid], for which the MIC against Staph. aureus S18733 is 12.5 µg/mL; with Prot. vulg., 12.5 µg/mL; with Pseudomonas #28 (Pseudomonas #28, in vitro), 6.3 µg/mL; with Serr. marces., 50 µg/mL; against Strep. fec. it was 50 µg/mL; in the experiment with E. coli Brig it was 3.1 µg/mL. The MIC against E. coli Vogel came to 0.8 µg/mL; against Pseudomonas BRK 12-4-4, 12.5 µg/mL; in the experiment with Staph. aureus UC-76 it was 3.1 µg/mL; in the experiment with Pseudomonas UI 18, 6.3 µg/mL; in the experiment on Klebs. pneu., 3.1 µg/mL; with Entero. cloacae, 6.3 µg/mL.

`CC(=O)OCC1=C(C(=O)O)N2C(=O)[C@@H](NC(=O)[C@H](NC(=O)c3cnc(-c4ccc(NC(=O)C5CCC(=O)N5)cc4)nc3O)c3ccccc3)[C@H]2SC1` (mixture of isomers) [Example 6, N-[2-]4-((5-oxo-DL-prolyl)amino)phenyl]-4-hydroxy-5-pyrimidinylcarbonyl]-7-[D-2-amino-2-phenylacetamido]-3-acetoxymethyl-3-cephem-4-carboxylic acid]: the MIC against Staph. aureus S18733 is 6.3 µg/mL; in the experiment on Prot. vulg., 50 µg/mL; with Pseudomonas #28 (Pseudomonas) it was 6.3 µg/mL; in the experiment on Serr. marces. it was > 50 µg/mL; with Strep. fec., 50 µg/mL; in the experiment on E. coli Brig, 50 µg/mL. Further, the MIC amounted to 12.5 µg/mL in the experiment with E. coli Vogel; 12.5 µg/mL in the experiment with Pseudomonas BRK 12-4-4; 1.6 µg/mL in the experiment on Staph. aureus UC-76; 12.5 µg/mL against Pseudomonas UI 18; 25 µg/mL in the experiment on Klebs. pneu.; 50 µg/mL against Entero. cloacae.

Consider `CC(=O)N[C@@H](C(=O)Nc1ccc(-c2ncc(C(=O)N[C@@H](C(=O)NC3C(=O)N4C(C(=O)O)=C(CSc5nnnn5C)CSC34)c3ccccc3)c(O)n2)cc1)C(C)C` (stereo partly drawn) [Example 29], for which the MIC worked out at 3.1 µg/mL (≈ 3.8 µM) in the experiment with Staph. aureus S18733; 6.3 µg/mL (≈ 7.72 µM) against Prot. vulg.; 6.3 µg/mL (≈ 7.72 µM) with Pseudomonas #28 (Pseudomonas #28, in vitro); 50 µg/mL (≈ 61.3 µM) in the experiment with Serr. marces.; 25 µg/mL (≈ 30.6 µM) with Strep. fec.; 12.5 µg/mL (≈ 15.3 µM) against E. coli Brig. Also, the MIC against E. coli Vogel was found to be 1.6 µg/mL (≈ 1.96 µM); in the experiment with Pseudomonas BRK 12-4-4 it was 12.5 µg/mL (≈ 15.3 µM); in the experiment on Staph. aureus UC-76 it was 1.6 µg/mL (≈ 1.96 µM); in the experiment on Pseudomonas UI 18, 6.3 µg/mL (≈ 7.72 µM); in the experiment with Klebs. pneu., 3.1 µg/mL (≈ 3.8 µM); against Entero. cloacae, 12.5 µg/mL (≈ 15.3 µM).

On to `CC(=O)N[C@H](C)C(=O)Nc1ccc(-c2ncc(C(=O)N[C@@H](C(=O)N[C@@H]3C(=O)N4C(C(=O)O)=C(COC(N)=O)CS[C@H]34)c3ccccc3)c(O)n2)cc1` [Example 21], for which the MIC against Staph. aureus S18733 was 1.6 µg/mL (≈ 2.18 µM); against Prot. vulg. it was 12.5 µg/mL (≈ 17.1 µM); in the experiment with Pseudomonas #28 (Pseudomonas #28, in vitro) it was 3.1 µg/mL (≈ 4.23 µM); in the experiment on Serr. marces., > 50 µg/mL; with Strep. fec., 25 µg/mL (≈ 34.1 µM); in the experiment with E. coli Brig it was 25 µg/mL (≈ 34.1 µM). In addition, the MIC against E. coli Vogel stood at 12.5 µg/mL (≈ 17.1 µM); with Pseudomonas BRK 12-4-4, 12.5 µg/mL (≈ 17.1 µM); in the experiment on Staph. aureus UC-76, 0.8 µg/mL (≈ 1.09 µM); in the experiment with Pseudomonas UI 18, 12.5 µg/mL (≈ 17.1 µM); in the experiment on Klebs. pneu., 12.5 µg/mL (≈ 17.1 µM); against Entero. cloacae, 25 µg/mL (≈ 34.1 µM).

Regarding `CC(=O)N[C@@H](C)C(=O)Nc1ccc(-c2ncc(C(=O)N[C@@H](C(=O)NC3C(=O)N4C(C(=O)O)=C(CSc5nnnn5C)CSC34)c3ccccc3)c(O)n2)cc1` (stereo partly drawn) [Example 26, N-[2-[4-(N-Acetyl-L-alanylamino)phenyl]-4-hydroxy-5-pyrimidinylcarbonyl]-7-[D-2-amino-2-phenylacetamido]-3-[[(1-methyl-1H-tetrazol-5-yl)thio]methyl]-3-cephem-4-carboxylic acid], the MIC came out at 12.5 µg/mL (≈ 15.9 µM) against Staph. aureus S18733; 12.5 µg/mL (≈ 15.9 µM) against Prot. vulg.; 6.3 µg/mL (≈ 8 µM) with Pseudomonas #28 (Pseudomonas #28, in vitro); 50 µg/mL (≈ 63.5 µM) against Serr. marces.; 50 µg/mL (≈ 63.5 µM) in the experiment with Strep. fec.; 12.5 µg/mL (≈ 15.9 µM) against E. coli Brig. The MIC in the experiment on E. coli Vogel came out at 3.1 µg/mL (≈ 3.93 µM); in the experiment with Pseudomonas BRK 12-4-4, 12.5 µg/mL (≈ 15.9 µM); with Staph. aureus UC-76, 6.3 µg/mL (≈ 8 µM); against Pseudomonas UI 18, 12.5 µg/mL (≈ 15.9 µM); against Klebs. pneu., 6.3 µg/mL (≈ 8 µM); in the experiment on Entero. cloacae, 12.5 µg/mL (≈ 15.9 µM).

Take `CC(=O)NCC(=O)Nc1ccc(-c2ncc(C(=O)N[C@@H](C(=O)NC3C(=O)N4C(C(=O)O)=C(CSc5nnnn5C)CSC34)c3ccccc3)c(O)n2)cc1` (stereo partly drawn) [Example 22]: the MIC in the experiment on Staph. aureus S18733 amounted to 3.1 µg/mL (≈ 4.01 µM); against Prot. vulg. it was 6.3 µg/mL (≈ 8.14 µM); in the experiment with Pseudomonas #28 (Pseudomonas #28, in vitro), 6.3 µg/mL (≈ 8.14 µM); with Serr. marces. it was 50 µg/mL (≈ 64.6 µM); in the experiment with Strep. fec., 50 µg/mL (≈ 64.6 µM); in the experiment with E. coli Brig it was 6.3 µg/mL (≈ 8.14 µM). In addition, the MIC against E. coli Vogel worked out at 0.8 µg/mL (≈ 1.03 µM); in the experiment with Pseudomonas BRK 12-4-4, 12.5 µg/mL (≈ 16.2 µM); against Staph. aureus UC-76 it was 1.6 µg/mL (≈ 2.07 µM); in the experiment on Pseudomonas UI 18, 12.5 µg/mL (≈ 16.2 µM); with Klebs. pneu., 0.8 µg/mL (≈ 1.03 µM); with Entero. cloacae it was 6.3 µg/mL (≈ 8.14 µM).

For the molecule `CC(=O)NC(C)C(=O)Nc1ccc(-c2ncc(C(=O)N[C@@H](C(=O)NC3C(=O)N4C(C(=O)O)=C(CSc5nnc(C)s5)CSC34)c3ccccc3)c(O)n2)cc1` (mixture of isomers) [Example 40, N-[2-[4-(N-Acetyl-DL-alanylamino)phenyl]-4-hydroxy-5-pyrimidinylcarbonyl]-7-[D-2-amino-2-phenylacetamido]-3-[[(5-methyl-1,3,4-thiadiazoyl-2-thio]methyl]-3-cephem-4-carboxylic acid], the MIC in the experiment on Staph. aureus S18733 is 3.1 µg/mL; against Prot. vulg., 50 µg/mL; in the experiment with Pseudomonas #28 (Pseudomonas #28, in vitro), 12.5 µg/mL; with Serr. marces. it was 50 µg/mL; against Strep. fec., 25 µg/mL; against E. coli Brig, 12.5 µg/mL. Further, the MIC with E. coli Vogel is 3.1 µg/mL; against Pseudomonas BRK 12-4-4, 12.5 µg/mL; in the experiment with Staph. aureus UC-76, 0.4 µg/mL; against Pseudomonas UI 18, 6.3 µg/mL; against Klebs. pneu., 3.1 µg/mL; with Entero. cloacae, 25 µg/mL.
